We go through five compounds from paper PMC2874658 (Bioorganic & medicinal chemistry letters, 2010).

The target in one assay is PKM2 (Homo sapiens, UniProt P14618). The experiment in a line: steady-state kinetics of PEP and ADP in the PK-LDH coupled assay. It counts as biochemical.
A further assay deals with hPK, M2 (PKM2) (Homo sapiens, UniProt P14618). As to the kind of experiment: luminescent pyruvate kinase-luciferase coupled assay. To be noted: for activation at 57 µM: read-out: hPK, M2 Max. Res, % activation at 57 μM of compound, luciferase coupled assay; for potency (in words): PKM2 activation, SAR statement. It counts as biochemical.
Sequence of hPK, M2 (PKM2) (P14618 whole entry): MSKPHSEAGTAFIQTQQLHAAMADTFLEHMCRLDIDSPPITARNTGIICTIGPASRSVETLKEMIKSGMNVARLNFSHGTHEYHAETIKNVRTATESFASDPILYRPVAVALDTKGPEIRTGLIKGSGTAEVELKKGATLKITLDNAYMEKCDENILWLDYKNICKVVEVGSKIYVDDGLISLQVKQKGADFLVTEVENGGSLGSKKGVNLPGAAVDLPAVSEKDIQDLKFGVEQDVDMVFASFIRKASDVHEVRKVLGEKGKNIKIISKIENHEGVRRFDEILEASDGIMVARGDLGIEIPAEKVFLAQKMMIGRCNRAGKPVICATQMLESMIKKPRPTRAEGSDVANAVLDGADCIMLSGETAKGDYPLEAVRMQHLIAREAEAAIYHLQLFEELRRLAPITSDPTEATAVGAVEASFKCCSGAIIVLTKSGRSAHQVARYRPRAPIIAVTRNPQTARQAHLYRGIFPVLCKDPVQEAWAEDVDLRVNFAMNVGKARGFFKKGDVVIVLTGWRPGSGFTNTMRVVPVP

Sequence of PKM2 (P14618 whole entry): as above

For the compound `Cc1cc2c(s1)c1cnn(Cc3ccccc3F)c(=O)c1n2C` [compound 1], the “decrease of KM for PEP” value at PKM2 (in the presence of activator versus absence (KM ~ 1.5 mM)) is recorded as 10 fold. Further, the Vmax on PKM2 (with or without activator) worked out at 255 pmols/min.
On to `Cc1cc2[nH]c3c(=O)n(Cc4ccccc4F)ncc3c2s1` [compound 19], for which the activation at 57 µM on hPK, M2 (PKM2) stood at 33%.
For `Cn1c2ccsc2c2ncn(Cc3ccccc3F)c(=O)c21` [compound 23], the activation at 57 µM on hPK, M2 (PKM2) was less than 80%.
Take `Cc1cc2c(s1)c1cnn(-c3ccccc3)c(=O)c1n2C` [compound 24]: the “potency (in words)” value at hPK, M2 (PKM2) is “marked loss of potency”.
On the same count and under the same terms, to `CCCCCn1ncc2c3sc(C)cc3n(C)c2c1=O` [compound 25] belongs “marked loss of potency”.
